According to patent publication EP4737450A1 (Longwood Pharmaceuticals (Hangzhou) Co., Ltd, priority 2023, dated 2025):
Like-named read-outs stand apart in the source and are kept apart here.

Columns and labels:
plasma kallikrein (PKa) = target: T1, plasma kallikrein (PKa) (Homo sapiens, UniProt P03952); assay: Inhibitory activity against plasma kallikrein in vitro (fluorescence intensity enzyme assay, Pro-Phe-Arg-AMC substrate); format: biochemical; details: Pro-Phe-Arg-AMC substrate
T1 construct: purchased R & D 2497-SE
Outline: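 Fluorescence intensity enzyme assay with 10 nM enzyme and 60 µM Pro-Phe-Arg-AMC (final concentrations). Compounds in DMSO, tested in duplicate over a dose series. IC50 from nonlinear regression curve fitting.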

KLK1 = KLK1 (Homo sapiens, UniProt P06870); assay: Inhibitory activity against KLK1 in vitro (biochemical assay); details: values given in µM
Source text: Test Example 1. Test of the inhibitory activities of the compounds of the present invention against plasma kallikrein (PKa), KLK1 and FXIa in vitro. […]

FXIa = FXIa (Homo sapiens, UniProt P03951); assay: Inhibitory activity against FXIa in vitro (biochemical assay); details: values given in µM
Experimental: Test Example 1. Test of the inhibitory activities of the compounds of the present invention against plasma kallikrein (PKa), KLK1 and FXIa in vitro.
PKK (R & D, Cat # 2497-SE) and Pro-Phe-Arg-AMC (Nanjing Peptide, Cat # NJP23946) solutions were prepared in reaction buffer (50 mM Tris-HCl, pH 7.5, 250 mM NaCl). The final concentrations of enzyme protein and Pro-Phe-Arg-AMC in the reaction mixture were 10 nM and 60 µM, respectively. The starting concentration of the positive reference substance Avoralstat was 100 nM, 3-fold dilution, 10 + 0 dose. 0.05 µL of compound in 100% DMSO was delivered to a 384-well plate by an acoustic liquid delivery technique (Echo665; nanoliter range). Compound duplex test. 5 µL of 2 × enzyme solution was transferred to a 384 reaction plate and centrifuged at 1000 rpm for 1 minute, incubated at 25°C for 15 minutes; 5 µL of 2 × Pro-Phe-Arg-AMC solution was transferred to a 384 reaction plate, centrifuged at 1000 rpm for 1 minute, incubated at 25°C for 3 hours. […] IC50 values and nonlinear regression curve fitting were obtained using GraphPad Prism software.

[1] = plasma kallikrein enzyme assay, read-out: PKa IC50
[2] = PKa IC50, plasma kallikrein enzyme assay

KLK1, sequence (P06870 25-262, species assumed): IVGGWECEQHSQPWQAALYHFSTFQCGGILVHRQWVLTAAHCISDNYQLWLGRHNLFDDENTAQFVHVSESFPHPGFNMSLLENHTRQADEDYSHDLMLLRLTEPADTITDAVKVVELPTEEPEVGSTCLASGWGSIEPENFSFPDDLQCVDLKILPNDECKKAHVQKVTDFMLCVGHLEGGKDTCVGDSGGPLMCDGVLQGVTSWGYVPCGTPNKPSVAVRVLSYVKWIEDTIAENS
FXIa, sequence (P03951 388-625 limits assumed): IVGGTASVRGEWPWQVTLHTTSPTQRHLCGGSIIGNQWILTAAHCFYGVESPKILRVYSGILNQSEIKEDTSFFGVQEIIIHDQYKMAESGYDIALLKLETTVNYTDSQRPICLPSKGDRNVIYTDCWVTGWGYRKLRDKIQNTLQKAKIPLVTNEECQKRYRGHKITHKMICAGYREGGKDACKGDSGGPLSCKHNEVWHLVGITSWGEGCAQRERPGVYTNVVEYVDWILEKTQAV
FXIa, sequence (P03951 19-387 partner limits assumed): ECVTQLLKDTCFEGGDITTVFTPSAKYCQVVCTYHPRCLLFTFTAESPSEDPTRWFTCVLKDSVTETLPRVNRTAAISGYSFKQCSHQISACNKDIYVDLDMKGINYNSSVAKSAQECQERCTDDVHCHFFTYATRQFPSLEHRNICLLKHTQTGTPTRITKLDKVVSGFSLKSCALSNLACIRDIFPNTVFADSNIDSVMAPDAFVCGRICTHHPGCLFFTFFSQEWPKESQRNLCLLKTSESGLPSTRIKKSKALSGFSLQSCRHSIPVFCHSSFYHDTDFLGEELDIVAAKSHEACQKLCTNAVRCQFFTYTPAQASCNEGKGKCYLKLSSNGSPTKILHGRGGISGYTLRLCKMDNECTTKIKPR
T1 sequence (P03952 391-638 limits assumed): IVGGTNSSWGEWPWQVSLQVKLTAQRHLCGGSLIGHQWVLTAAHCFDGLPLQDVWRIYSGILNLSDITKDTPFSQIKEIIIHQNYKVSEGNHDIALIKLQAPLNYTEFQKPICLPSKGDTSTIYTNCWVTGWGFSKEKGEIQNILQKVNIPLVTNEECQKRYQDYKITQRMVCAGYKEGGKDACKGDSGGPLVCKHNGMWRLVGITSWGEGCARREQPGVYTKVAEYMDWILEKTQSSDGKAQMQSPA
T1 sequence (P03952 20-390 partner limits assumed): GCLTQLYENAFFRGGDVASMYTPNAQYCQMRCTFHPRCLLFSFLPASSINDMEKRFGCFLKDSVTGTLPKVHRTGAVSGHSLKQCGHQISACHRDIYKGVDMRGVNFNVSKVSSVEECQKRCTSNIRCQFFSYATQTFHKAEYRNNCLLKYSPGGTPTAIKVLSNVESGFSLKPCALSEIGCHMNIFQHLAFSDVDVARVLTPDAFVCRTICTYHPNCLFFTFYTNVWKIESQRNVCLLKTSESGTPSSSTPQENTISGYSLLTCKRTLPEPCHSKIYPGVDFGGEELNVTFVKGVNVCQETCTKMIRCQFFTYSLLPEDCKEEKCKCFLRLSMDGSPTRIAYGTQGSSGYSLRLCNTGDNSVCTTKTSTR

SMILES | IC50 (plasma kallikrein (PKa); [1]) [nM] | IC50 (KLK1) [µM] | IC50 (FXIa) [µM] | IC50 (plasma kallikrein (PKa); [2]) [nM]
N=C(N)c1ccc(CNC(=O)c2cnn(Cc3ccc(CC4CC4)cc3)c2)cc1 [Compound 105] | 0.26 | > 10 | > 10 | –
COCc1nn(Cc2ccc(CC3CC3)cc2)cc1C(=O)NCc1ccc(C(=N)N)cc1 [Compound 121] | 0.48 | > 10 | > 10 | –
Cc1cc2nccn2c(C)c1CNC(=O)c1nc(Cc2ccc(Cn3ccccc3=O)cc2)ns1 [Compound 137] | 0.9 | > 10 | > 10 | –
COCc1nn(Cc2ccc(Cn3ccccc3=O)cc2)cc1C(=O)NCc1c(C)cn2cncc2c1C [Compound 147] | – | > 10 | > 10 | 1.57
COCc1nn(Cc2ccc(C3CCCCC3)c(C(F)(F)F)c2)cc1C(=O)NCc1ccc(C(=N)N)cc1 [Compound 153] | 0.18 | > 10 | > 10 | –
COCc1nn(Cc2ccc(N3CC4C(C3)C4(F)F)cc2C#N)cc1C(=O)NCc1cc2cnccc2[nH]1 (stereo not drawn) [Compound 157, N-((1H-pyrrolo[3,2-c]pyridin-2-yl)methyl)-1-(2-cyano-4-(6,6-difluoro-3-azabicyclo[3.1.0]hexan-3-yl)benzyl)-3-(methoxymethyl)-1H-pyrazole-4-carboxamide] | 1.89 | > 10 | > 10 | –
Cc1cc2nccn2c(C)c1CNC(=O)c1cn(Cc2ccc(N3CC4C(C3)C4(F)F)cc2C#N)nc1C(F)(F)F (stereo not drawn) [Compound 204] | 1.23 | > 10 | > 10 | –
CCc1c(N)nc(C)c(CNC(=O)c2cnn(Cc3ccc(Cn4ccccc4=O)cc3)c2)c1C [Compound 253] | 0.18 | > 10 | > 10 | –
COc1cc(Cn2cc(C(=O)NCc3ccc(C(=N)N)cc3)cn2)ccc1CC1CC1 [Compound 255] | 2.35 | > 10 | > 10 | –
Cc1nc(N)c(C)c(C)c1CNC(=O)c1cnn(Cc2ccc(Cn3ccccc3=O)cc2)c1 [Compound 256] | 0.44 | > 10 | > 10 | –
CCc1c(N)nc(C)c(CNC(=O)c2ncn(Cc3ccc(Cn4ccccc4=O)cc3)n2)c1C [Compound 257] | 0.67 | > 10 | > 10 | –
N=C(N)c1ccc(CNC(=O)c2cnn(Cc3ccc(CC4CC4)c(F)c3)c2)cc1 [Compound 262] | 2.67 | > 10 | > 10 | –
CCOc1cc(Cn2cc(C(=O)NCc3ccc(C(=N)N)cc3)cn2)ccc1CC1CC1 [Compound 264] | 0.82 | > 10 | > 10 | –
N=C(N)c1ccc(CNC(=O)c2cnn(Cc3ccc(CC4CC4)cc3)c2)c(F)c1 [Compound 270] | 0.18 | > 10 | > 10 | –
COc1ccnc(CNC(=O)c2cn(Cc3ccc(Cn4ccccc4=O)cc3)nc2N2CC(C)(O)C2)c1F [Compound 296] | – | > 10 | > 10 | 2.22
Cc1cc(C(=N)N)cc(C)c1CNC(=O)c1cnn(Cc2ccc(Cn3ccccc3=O)cc2)c1 [Compound 314] | 0.32 | > 10 | > 10 | –
N=C(N)c1ccc(CNC(=O)c2cnn(Cc3ccc(CC4CC4)cc3)c2)cc1F [Compound 321] | 2.71 | > 10 | > 10 | –
N=C(N)c1ccc(CNC(=O)c2cnn(Cc3ccc(Cn4ccccc4=O)cc3)c2)c(F)c1 [Compound 341] | 0.07 | > 10 | > 10 | –
N=C(N)c1ccc(CNC(=O)c2cnn(Cc3cc(F)c(OCC4CC4)c(F)c3)c2)cc1 [Compound 345] | 1.98 | > 10 | > 10 | –
N=C(N)c1ccc(CNC(=O)c2cnn(Cc3c(Cl)cc(CC4CC4)cc3Cl)c2)cc1 [Compound 347] | 1.04 | > 10 | > 10 | –
Cc1nc(C)n(Cc2ccc(Cn3cc(C(=O)NCc4ccc(C(=N)N)cc4F)cn3)cc2)n1 [Compound 351] | 1.13 | > 10 | > 10 | –
N=C(N)c1ccc(CNC(=O)c2cnn(Cc3ccc(Cn4ccccc4=O)cc3)c2)cn1 [Compound 353] | 0.79 | > 10 | > 10 | –
N=C(N)c1ccc(CNC(=O)c2cnn(Cc3ccc(OC4CC4)cc3)c2)cc1 [Compound 354] | 2.45 | > 10 | > 10 | –
Cc1cc(C)n(Cc2ccc(Cn3cc(C(=O)NCc4ccc(C(=N)N)cc4F)cn3)cc2)n1 [Compound 355] | 0.12 | > 10 | > 10 | –

Second part, led by results:

IC50 (plasma kallikrein (PKa); [1]) [nM] | IC50 (KLK1) [µM] | IC50 (FXIa) [µM] | SMILES | IC50 (plasma kallikrein (PKa); [2]) [nM]
0.53 | > 10 | > 10 | Cc1cc2nccn2c(C)c1CNC(=O)c1cnn(Cc2ccc(Cn3ccccc3=O)cc2)c1 [Compound 94] | –
0.07 | > 10 | > 10 | Cc1cc(N)nc(C)c1CNC(=O)c1cn(Cc2ccc(Cn3ccccc3=O)cc2)nc1C(F)(F)F [Compound 116] | –
0.92 | > 10 | > 10 | COCc1nn(Cc2ccc(Cn3ccccc3=O)cc2)cc1C(=O)NCc1cn2c(n1)CNCC2 [Compound 118] | –
1.09 | > 10 | > 10 | CCn1cnc2c1CC[C@H]2NC(=O)c1cn(Cc2ccc(Cn3ccccc3=O)cc2)nc1COC [Compound 130] | –
0.35 | > 10 | > 10 | Cc1cc2nccn2c(C)c1CNC(=O)c1cn(Cc2ccc(Cn3ccccc3=O)cc2)nc1C(F)(F)F [Compound 142, N-((5,7-dimethylimidazo[1,2-a]pyridin-6-yl)methyl)-1-(4-((2-oxopyridin-1(2H)-yl)methyl]benzyl)-3-(trifluoromethyl)-1H-pyrazole-4-carboxamide] | –
0.65 | > 10 | > 10 | COCc1nn(Cc2ccc(Cn3ccccc3=O)cc2)cc1C(=O)NCc1c(C)cc2nccn2c1C [Compound 143] | –
1.48 | > 10 | > 10 | O=C(NCc1cc2ccncc2[nH]1)c1cn(Cc2ccc(Cn3ccccc3=O)cc2)nc1C(F)(F)F [Compound 155] | –
0.53 | > 10 | > 10 | Cc1cn2cncc2c(C)c1CNC(=O)c1cn(Cc2ccc(Cn3ccccc3=O)cc2)nc1C(F)(F)F [Compound 203] | –
35 | > 10 | > 10 | COc1ccnc(CNC(=O)c2cn(Cc3ccc(Cn4ccccc4=O)cc3)nc2CN2CCN(C)CC2)c1F [Compound 213] | –
2.16 | > 10 | > 10 | COc1ccc(F)c(CNC(=O)c2cn(Cc3ccc(Cn4cc(F)ccc4=O)cc3)nc2C2CC2(F)F)c1F (stereo not drawn) [Compound 218] | –
1.94 | > 10 | > 10 | COc1ccc(F)c(CNC(=O)c2cn(Cc3ccc(Cn4ccccc4=O)cc3)nc2COCCN(C)C)c1F [Compound 222] | –
2.86 | > 10 | > 10 | COc1ccc(F)c(CNC(=O)c2cn(Cc3ccc(Cn4ccccc4=O)cc3)nc2CO[C@H]2CCN(C)C2)c1F [Compound 225] | –
1.9 | > 10 | > 10 | Cc1nc(N)c(C)c(C)c1CNC(=O)c1ncn(Cc2ccc(Cn3ccccc3=O)cc2)n1 [Compound 250] | –
0.59 | > 10 | > 10 | COc1ccnc(CNC(=O)c2cn(Cc3ccc(Cn4ccccc4=O)cc3)nc2C2C(C)(C)C2(F)F)c1F (stereo not drawn) [Compound 263] | –
0.6 | > 10 | > 10 | Nc1ccnc(CNC(=O)c2cn(Cc3ccc(Cn4ccccc4=O)cc3)nc2C2COC2)c1F [Compound 274] | –
2.31 | > 10 | > 10 | COc1ccc(Cl)c(CNC(=O)c2cn(Cc3ccc(Cn4ccccc4=O)cc3)nc2COCC2(F)COC2)c1F [Compound 289] | –
1.6 | > 10 | > 10 | CN(C)c1ccnc(CNC(=O)c2cn(Cc3ccc(Cn4ccccc4=O)cc3)nc2C2CC2(F)F)c1F (stereo not drawn) [Compound 310] | –
1.92 | > 10 | > 10 | CN(C)c1ccnc(CNC(=O)c2cn(Cc3ccc(Cn4ccccc4=O)cc3)nc2C2COC2)c1F [Compound 335] | –
2.23 | > 10 | > 10 | O=C(NCc1ncc2cc[nH]c2c1F)c1cn(Cc2ccc(Cn3ccccc3=O)cc2)nc1C1COC1 [Compound 337, N-((7-fluoro-1H-pyrrolo[3,2-c]pyridin-6-yl)methyl)-3-(oxetan-3-yl)-1-(4-((2-oxopyridin-1(2H)-yl)methyl)benzyl)-1H-pyrazole-4-carboxamide] | –
1.38 | > 10 | > 10 | Cn1ccc2cnc(CNC(=O)c3cn(Cc4ccc(Cn5ccccc5=O)cc4)nc3C3COC3)c(F)c21 [Compound 338] | –
